# Source: US5051417A, “Indolythiadiazines for treating heart failure” (Les Laboratoires Beecham S.A., priority 1988, dated 1991)
# Columns and labels:
# [1] = test system: canine cardiac PDE, CAM; assay: Canine cardiac PDE inhibition, CAM; format: biochemical; settings: n in table
# [2] = biological target: T1, canine cardiac PDE, CGI (Canis lupus familiaris, UniProt A0A8I3NYE0); assay: Canine cardiac PDE inhibition, CGI; format: biochemical; settings: n in table
# T1 construct: CANINE CARDIAC PDE; from tissue; host or cells: dog heart
# T1 sequence (A0A8I3NYE0 1-1135): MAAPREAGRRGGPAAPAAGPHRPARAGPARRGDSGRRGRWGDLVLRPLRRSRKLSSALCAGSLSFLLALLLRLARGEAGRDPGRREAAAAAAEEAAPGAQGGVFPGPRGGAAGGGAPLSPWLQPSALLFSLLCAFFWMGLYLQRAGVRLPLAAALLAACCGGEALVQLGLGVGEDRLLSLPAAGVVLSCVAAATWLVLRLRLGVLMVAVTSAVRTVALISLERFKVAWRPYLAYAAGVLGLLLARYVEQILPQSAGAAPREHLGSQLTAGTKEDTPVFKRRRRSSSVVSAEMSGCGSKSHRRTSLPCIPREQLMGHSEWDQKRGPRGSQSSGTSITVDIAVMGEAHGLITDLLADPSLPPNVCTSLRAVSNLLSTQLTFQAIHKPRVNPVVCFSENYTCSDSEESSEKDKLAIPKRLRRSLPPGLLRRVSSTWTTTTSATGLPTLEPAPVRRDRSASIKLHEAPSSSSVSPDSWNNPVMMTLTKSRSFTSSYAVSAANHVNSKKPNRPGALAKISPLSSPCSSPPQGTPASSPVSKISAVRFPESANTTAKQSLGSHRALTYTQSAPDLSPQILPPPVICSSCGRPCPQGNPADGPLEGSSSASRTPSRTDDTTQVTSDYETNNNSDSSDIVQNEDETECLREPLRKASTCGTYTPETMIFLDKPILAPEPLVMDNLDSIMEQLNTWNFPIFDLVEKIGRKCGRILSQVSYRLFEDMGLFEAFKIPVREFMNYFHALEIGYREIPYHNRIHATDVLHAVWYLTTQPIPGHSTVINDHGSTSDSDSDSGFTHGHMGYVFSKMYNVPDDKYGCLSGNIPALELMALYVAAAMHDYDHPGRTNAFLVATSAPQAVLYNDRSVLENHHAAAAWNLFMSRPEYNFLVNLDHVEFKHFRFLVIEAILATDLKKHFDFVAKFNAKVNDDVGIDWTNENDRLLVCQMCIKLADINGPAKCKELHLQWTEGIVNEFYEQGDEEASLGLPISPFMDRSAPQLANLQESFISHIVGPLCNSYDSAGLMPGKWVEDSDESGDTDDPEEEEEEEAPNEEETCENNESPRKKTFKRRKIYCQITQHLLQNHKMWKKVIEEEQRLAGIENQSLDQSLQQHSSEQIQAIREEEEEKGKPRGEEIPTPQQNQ
# [3] = test system: canine cardiac myofibrillar Ca++-dependent Mg++-ATPase; assay: Measurement of myofibrillar Ca++-dependent Mg++-ATPase activity on canine cardiac myofibrils; format: biochemical; settings: pH 7.0, 21° C.; for max (percent change of maximal ATPase activity): pCa=5.47
# Method: 1. Measurement of myofibrillar Ca++-dependent Mq++-ATPase activity The effect on myofibrillar Ca++sensitivity and on maximal activity of myofibrillar Ca++-dependent Mg++-ATPase was determined on canine cardiac myofibrils. (a) Contractile protein preparation Cardiac myofibrils free of membrane contaminants were prepared from left ventricular tissue of dog hearts using a modification of the method described by SOLARO et al, Biochem. Biophys. Acta, 245, 259-262, (1971). Before centrifugation, the heart homogenate was filtered through gauze. After Triton X-100 treatments, the myofibrillar fraction was washed once by resuspension and centrifugation in 10 volumes of 1 mM EGTA, […], 30 mM imidazole, 2 mM MgCl2, pH 7.0. The pellet was then washed three times in 10 volumes of the same buffer without EGTA. Before the last centrifugation, the suspension of myofibrils was filtered through a stainless steel sieve with 0.25 mm meshes. Myofibrils were kept in pellet overnight. Before use, the pellet was suspended in a small amount of buffer, the protein concentration was determined by the method of BRADFORD M., Anal. Biochem., 1976, 72, 248 and adjusted in order to have a concentration between 6 and 7 mg/ml. (b) Myofibrillar ATPase activity Ca++-dependent myfibrillar ATPase activity was determined at 21° C., pH 7.0, by measuring the rate of release of inorganic phosphate. All assays were performed within 24hrs. of final purification, using the method described by SOLARO and […]., 51. 290-4,(1982). Reaction mixtures (4 ml) containing 0.6-0.7 mg/ml myofibrillar protein, 80mM KCl, 20 mM imidazole, 3 mM MgCl2, 1 mM EGTA, the desired amount of CaCl2, and the indicated concentration of drug or appropriate vehicle were preincubated for 6 min. prior to assay. The amount of CaCl2 was varied between 0 and 0.9 mM and the pCa (-log free Ca++) computed using 2.514×10^6 M^-1 as the apparent affinity of Ca++for EGTA at pH 7.0. Reactions were initiated by the addition of Na2 ATP to final concentration of 2 mM. After an incubation period of 12 min., reactions were quenched by the addition of an equal volume of ice-cold 10% trichloroacetic acid. The protein was pelleted by centrifugation (2000 g, 15 min.) and Pi was assayed in the supernatant fraction using a modification of the method described by LANZETTA et al, Anal. Biochem., 100, 95-97, (1979). The following solutions were prepared: (1) 3.7% ammonium heptamolybdate in 0.12 N H2 SO4 (2) 0.074% malachite green oxalate in 1% polyvinylic alcohol. The colour reagent was prepared by mixing an equal volume of solution (1) and (2) 15 min. before the assay. For the assay, 1,700 μl of 1% H2 SO4 and 1 ml of colour reagent were added to 100 μl of sample. Colour development occurred at room temperature for 30 min. and was quenched by the addition of 200 μl of 1M tri-potassium citrate. The absorbance was measured at 620 millimicrons. The effect of each compound, tested at the indicated concentration, on the relation between pCa and percent activation was determined taking 100% for the maximum ATPase activity obrained with vehicle alone. The effect on Ca++sensitivity was quantified by measuring the shift of the pCa giving 50% of the maximal control ATPase activity. The effect on maximal ATPase activity was expressed as the percent change of ATPase activity for pCa=5.47. Mean effects on myofibrillar ATPase activity were obtained from 1 to 5 preparations, (compounds tested at 2×10^-4 M).
# [4] = test system: anaesthetised dog; assay: Cardiotonic activity in the dog (haemodynamics); format: in vivo, dog (male Beagle); settings: i.v.
# [5] = Stability in presence of air; format: physicochemical; settings: free base
# Method: However, the compounds can usually be stabilised by converting them to a salt form.
# 1 g (2.8mmol) 1,3-Dihydro-5-(3,6-dihydro-6-methyl-2-oxo-2H -1,3,4-thiadiazin-5-yl)-3-phenylimino-2H-indol-2-one (E6) and 1.87 g (28mmol) powdered zinc in 20 ml glacial acetic acid were refluxed for 10 minutes. The excess of zinc was removed by filtration and washed with acetic acid. 100 ml water were added to the filtrate and the precipitate was filtered, washed with water until neutral, and dried under vacuum. […] The crystals of the free base were suspended in a 1/5 mixture of methanol/ethyl ether (30 ml) and about 5 ml of a saturated solution of HCl gas in ethyl ether were added. After 1 hour of stirring, the white precipitate was filtered off, washed with ether and dried.
Structure (SMILES),IC50 [1] [nM],IC50 [2] [nM],max (percent change of maximal ATPase activity) ([3]; 30 μM),pCa (shift of the pCa giving 50% of the maximal control ATPase activity; Ca++ sensitivity) ([3]; 30 μM),AoBF ([4]; 0.3 mg/kg),AoBP ([4]; 0.3 mg/kg) [%],H.R. ([4]; 0.3 mg/kg),dP/dt Max ([4]; 0.3 mg/kg),AoBF ([4]; 1.0 mg/kg),AoBP ([4]; 1.0 mg/kg) [%],H.R. ([4]; 1.0 mg/kg),dP/dt Max ([4]; 1.0 mg/kg),AoBF ([4]; 3.0 mg/kg),AoBP ([4]; 3.0 mg/kg) [%],H.R. ([4]; 3.0 mg/kg),dP/dt Max ([4]; 3.0 mg/kg),AoBF ([4]; 0.1 mg/kg),AoBP ([4]; 0.1 mg/kg),H.R. ([4]; 0.1 mg/kg),dP/dt Max ([4]; 0.1 mg/kg),also measured
"CON=C1C(=O)Nc2ccc(C3=NNC(=O)SC3C)cc21 (stereo not shown) [Example 2, 1,3-Dihydro-5-(3,6-dihydro-6-methyl-2-oxo-2H,1,3,4 thiadiazin-5-yl)-3-methoxyimino-2H-indol-2-one]",6900,1300,+13 ± 4%,0.60 ± 0.11,+16 ± 1%,-9 ± 1,+26 ± 10%,+54 ± 20%,+33 ± 5%,-20 ± 5,+55 ± 21%,+128 ± 56%,,,,,+8 ± 2%,+4 ± 2%,+13 ± 8%,+31 ± 9%,max (percent change of maximal ATPase activity) ([3]; 10 μM): +5 ± 2%; pCa (shift of the pCa giving 50% of the maximal control ATPase activity; Ca++ sensitivity) ([3]; 10 μM): 0.24 ± 0.01
"CC1SC(=O)NN=C1c1ccc2c(c1)C(Nc1ccccc1)C(=O)N2.Cl (stereo not shown) [Example 8, 1,3-Dihydro-5-(3,6-dihydro-6-methyl-2-oxo-2H-1,3,4-thiadiazin-5-yl)-3-phenylamino-2H-indol-2-one, hydrochloride]",19000,1200,2 ± 3%,+0.87 ± 0.01,,,,,,,,,,,,,,,,,stability in presence of air [5]: reverts to the starting material in presence of air
"COC(=S)NN=C1C(=O)Nc2ccc(C3=NNC(=O)SC3C)cc21 (stereo not shown) [Example 3, O-Methyl 2-[2,3-dihydro-5-(3,6-dihydro-6-methyl-2-oxo-2H -1,3,4-thiadiazin-5-yl)-2-oxo-1H-indol-3-ylidene]-hydrazine carbothioate]",> 300000,270,+3 ± 3%,+0.33 ± 0.05,-63 ± 8%,-29 ± 6,+54 ± 11%,+70 ± 5%,-50 ± 12%,-30 ± 1,+93 ± 7%,+126 ± 9%,,,,,-30 ± 12%,-14 ± 7%,+28 ± 6%,+17 ± 6%,

# More lines, main results first:
IC50 [1] [nM],IC50 [2] [nM],max (percent change of maximal ATPase activity) ([3]; 30 μM),pCa (shift of the pCa giving 50% of the maximal control ATPase activity; Ca++ sensitivity) ([3]; 30 μM),Structure (SMILES),AoBF ([4]; 0.3 mg/kg),AoBP ([4]; 0.3 mg/kg) [%],H.R. ([4]; 0.3 mg/kg),dP/dt Max ([4]; 0.3 mg/kg),AoBF ([4]; 1.0 mg/kg),AoBP ([4]; 1.0 mg/kg) [%],H.R. ([4]; 1.0 mg/kg),dP/dt Max ([4]; 1.0 mg/kg),AoBF ([4]; 3.0 mg/kg),AoBP ([4]; 3.0 mg/kg) [%],H.R. ([4]; 3.0 mg/kg),dP/dt Max ([4]; 3.0 mg/kg),AoBF ([4]; 0.1 mg/kg),AoBP ([4]; 0.1 mg/kg),H.R. ([4]; 0.1 mg/kg),dP/dt Max ([4]; 0.1 mg/kg),also measured
23000,430,-16 ± 3%,+0.60 ± 0.07,"CC1SC(=O)NN=C1c1ccc2c(c1)C(=Cc1ccccc1O)C(=O)N2 (stereo not shown) [Example 17, 1,3-Dihydro-5-(3,6-dihydro-6-methyl-2-oxo-2H-1,3,4-thiadiazin-5-yl)-3-[(2-hydroxyphenyl)methylene]-2H -indol-2-one]",+14 ± 2%,-8 ± 2,+9 ± 3%,+6 ± 2%,+16 ± 1%,-7 ± 1,+22 ± 5%,+35 ± 8%,+18 ± 4%,-20 ± 7,+52 ± 13%,+81 ± 18%,,,,,
7900,660,+1 ± 2%,0.25 ± 0.07,"CC1SC(=O)NN=C1c1ccc2c(c1)C(=NO)C(=O)N2 (stereo not shown) [Example 1, 1,3-Dihydro-5-(3,6-dihydro-6-methyl-2-oxo-2H-1,3,4-thiadiazin-5-yl)-3-hydroxyimino-2H-indol-2-one]",+16%,-9,+30%,+54%,+33%,-20,+55%,128%,,,,,+8%,+4%,+13%,+31%,max (percent change of maximal ATPase activity) ([3]; 10 μM): +5 ± 0%; pCa (shift of the pCa giving 50% of the maximal control ATPase activity; Ca++ sensitivity) ([3]; 10 μM): 0.19 ± 0.09
> 300000,130,,,"CC1SC(=O)NN=C1c1ccc2c(c1)C(=NNc1ccccc1)C(=O)N2 (stereo not shown) [Example 5, 5-(3,6-Dihydro-6-methyl-2-oxo-2H-1,3,4-thiadiazin-5-yl)-1H -indole-2,3-dione 3-phenylhydrazone]",-34 ± 5%,-12 ± 3,+18 ± 7%,+24 ± 6%,-28 ± 4%,-12 ± 1,+19 ± 16%,+42 ± 16%,-37 ± 2%,-19 ± 3,+58 ± 0%,+116 ± 31%,-25 ± 1%,-14 ± 6%,+8 ± 1%,+7 ± 2%,
